According to ChEMBL document CHEMBL1134100, “An unhydrolyzable analogue of N-(4-hydroxyphenyl)retinamide. synthesis and preliminary biological studies” (Bioorg Med Chem Lett, 2001):

What was measured:
Rattus norvegicus [1] = test: Effect on total mammary tumor volume in female rats on day 7 after a diet additive of 2 mmol/kg (+/-S.E) (p<0.05); type: functional
Rattus norvegicus [2] = test: Effect on total mammary tumor volume in female rats on day 1 after a diet additive of 2 mmol/kg (+/-S.E) (p<0.05); type: functional
[3] = biological target: T1, Retinoic acid receptor gamma (Homo sapiens, UniProt P13631); test: Binding affinity against Retinoic acid receptor gamma
T1 sequence (P13631 whole entry): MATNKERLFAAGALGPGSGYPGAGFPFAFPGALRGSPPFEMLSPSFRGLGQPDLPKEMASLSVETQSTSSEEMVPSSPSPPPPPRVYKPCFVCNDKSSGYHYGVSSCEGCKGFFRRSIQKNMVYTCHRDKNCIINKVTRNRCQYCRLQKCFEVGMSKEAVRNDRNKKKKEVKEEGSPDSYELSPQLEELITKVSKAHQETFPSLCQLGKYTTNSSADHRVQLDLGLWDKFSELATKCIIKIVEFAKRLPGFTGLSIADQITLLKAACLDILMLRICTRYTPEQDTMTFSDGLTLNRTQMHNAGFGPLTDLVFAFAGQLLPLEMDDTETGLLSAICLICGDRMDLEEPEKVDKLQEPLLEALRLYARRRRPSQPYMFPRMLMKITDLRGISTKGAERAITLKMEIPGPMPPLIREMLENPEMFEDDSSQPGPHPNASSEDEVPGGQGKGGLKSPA

Rattus norvegicus [4] = test: % change in the mean tumor volume in female rats on 21 days after a diet additive of 2 mmol/kg of the compound; type: functional
Rattus norvegicus [5] = test: Effect on total mammary tumor volume in female rats on day 14 after a diet additive of 2 mmol/kg (+/-S.E) (p<0.05); type: functional
Rattus norvegicus [6] = test: Effect on total mammary tumor volume in female rats on day 21 after a diet additive of 2 mmol/kg (+/-S.E) (p<0.05); type: functional

| SMILES | Mean tumor volume (Rattus norvegicus [1]) [cm*3] | Mean tumor volume (Rattus norvegicus [2]) [cm*3] | Ki [3] [nM] | Change (Rattus norvegicus [4]) [%] | Mean tumor volume (Rattus norvegicus [5]) [cm*3] | Mean tumor volume (Rattus norvegicus [6]) [cm*3] |
| --- | --- | --- | --- | --- | --- | --- |
| CC1=C(/C=C/C(C)=C/C=C/C(C)=C/C(=O)Nc2ccc(O)cc2)C(C)(C)CCC1 [FENRETINIDE] | 0.17 | 0.2 | > 400 | -77 | 0.1 | 0.05 |
| CC1=C(/C=C/C(C)=C/C=C/C(C)=C/C(=O)O)C(C)(C)CCC1 [TRETINOIN] | 0.46 | 0.69 |  | -74 | 0.27 | 0.18 |
| CC1=C(/C=C/C(C)=C/C=C/C(C)=C/C(=O)Cc2ccc(O)cc2)C(C)(C)CCC1 | 0.47 | 0.59 | > 4000 | -85 | 0.15 | 0.09 |
